Assay results published in BindingDB's records for doi:10.1021/jm000013n (The University of Queensland, 2000).

Assay: Inhibition of virion associated RT activity relative to untreated, infected control in cord blood mononuclear cells (CBMC) infected with HIV -1 TC354 strain

| Compound | IC50 |
| --- | --- |
| CC[C@@H](C)[C@@H]1NC(=O)[C@@H](NC[C@@H](O)[C@H](Cc2ccccc2)NC(=O)[C@@H](NC(=O)c2ccc3ccccc3n2)C(C)C)Cc2ccc(cc2)OCCCNC1=O | 95 nM |
| O=C1N(Cc2ccc(CO)cc2)[C@H](Cc2ccccc2)[C@H](O)[C@@H](O)[C@@H](Cc2ccccc2)N1Cc1ccc(CO)cc1 [(4R,5S,6S,7R)-4,7-dibenzyl-5,6-dihydroxy-1,3-bis({[4-(hydroxymethyl)phenyl]methyl})-1,3-diazepan-2-one] | 110 nM |
